Measurements reported in patent publication US6710049B2, “Azole compounds as anti-fungal agents” (Ranbaxy Laboratories Limited, priority 2000, dated 2004).
In brackets after ≈: the same amount, converted by molar mass.

Assays:
[1] = system: P variotii 22319; assay: MIC determination (NCCLS broth method); assay type: cell-based, Paecillomyces variotii
Source text: (§1) The in-vitro evaluation of the antifungal activity of the compounds can be performed by determining the minimum inhibitory concentration (MIC) as shown in Table 1 which is the concentration of the test compound in Rosewell Park Memorial Institute (RPMI) 1640 liquid medium buffered with 3-(Morpholino)propanesulphonic acid (MOPS) to pH 7, at which there is significant inhibition of the particular fungi. In practice the National Committee for Clinical Laboratory Standard (NCCLS) M27A document for Candida and Cryptococcus and M38P for Aspergillus was used to determine the MIC against yeast and filamentous fungi with suitable modifications for dermatophytes to other filamentous fungi. Three quality control strains were included each time the MIC were determined and readings recorded only when the Quality Control results fell into the acceptable range. After MIC results had been recorded, 100 μl from each of the well showing no growth was spread over Sabouraud Dextrose Agar (SDA) to determine the minimum fungicidal concentration (MFC) as shown in Table 2.

[2] = system: A flavus E3 - 1044; assay: MIC determination (NCCLS broth method); assay type: cell-based
Source text: as §1

[3] = system: A flavus P3 - 1041; assay: MIC determination (NCCLS broth method); assay type: cell-based
Source text: as §1

[4] = system: C glabrata 90030; assay: MIC determination (NCCLS broth method); assay type: cell-based
Source text: as §1

[5] = system: Mucor (Ceylon); assay: MIC determination (NCCLS broth method); assay type: cell-based
Source text: as §1

[6] = system: C neoformans I; assay: MIC determination (NCCLS broth method); assay type: cell-based, Cryptococcus neoformans
Source text: as §1

[7] = system: C neoformans M-106; assay: MIC determination (NCCLS broth method); assay type: cell-based, Cryptococcus neoformans
Source text: as §1

[8] = system: P variotii 22319; assay: MFC determination (subculture on Sabouraud Dextrose Agar); assay type: cell-based, Paecillomyces variotii
Source text: as §1

[9] = system: A fumigatus 1008; assay: as above; assay type: cell-based, Aspergillus fumigatus
Source text: as §1

[10] = system: A fumigatus SI-1 - 1019; assay: as above; assay type: cell-based, Aspergillus fumigatus
Source text: as §1

[11] = system: A flavus E3 - 1044; assay: as above; assay type: cell-based
Source text: as §1

[12] = system: A flavus E4 - 1042; assay: as above; assay type: cell-based
Source text: as §1

[13] = system: A flavus P2 - 1045; assay: as above; assay type: cell-based
Source text: as §1

[14] = system: A flavus P3 - 1041; assay: as above; assay type: cell-based
Source text: as §1

[15] = system: A niger E5 - 1047; assay: as above; assay type: cell-based
Source text: as §1

[16] = system: A niger P1 - 1046; assay: as above; assay type: cell-based
Source text: as §1

[17] = system: Alternaria 1051; assay: as above; assay type: cell-based
Source text: as §1

[18] = system: C krusei 6258; assay: as above; assay type: cell-based
Source text: as §1

[19] = system: C parapsilosis 22019; assay: as above; assay type: cell-based
Source text: as §1

[20] = system: Fusarium (Ceylon); assay: as above; assay type: cell-based
Source text: as §1

[21] = system: Fusarium 18270; assay: as above; assay type: cell-based
Source text: as §1

[22] = system: Fusarium 29600; assay: as above; assay type: cell-based
Source text: as §1

[23] = system: Mucor (Ceylon); assay: as above; assay type: cell-based
Source text: as §1

[24] = system: Penicillium 1641; assay: as above; assay type: cell-based
Source text: as §1

[25] = system: Penicillium 191; assay: as above; assay type: cell-based
Source text: as §1

[26] = system: Penicillium 2306; assay: as above; assay type: cell-based
Source text: as §1

[27] = system: Penicillium 2548; assay: as above; assay type: cell-based
Source text: as §1

[28] = system: Penicillium 31620; assay: as above; assay type: cell-based
Source text: as §1

[29] = system: Penicillium H - 1048; assay: as above; assay type: cell-based
Source text: as §1

[30] = system: Penicillium I - 1049; assay: as above; assay type: cell-based
Source text: as §1

[31] = system: Rhizopus (Ceylon); assay: as above; assay type: cell-based
Source text: as §1

[32] = system: Rhizopus 1052; assay: as above; assay type: cell-based
Source text: as §1

[33] = system: All Candida isolates; assay: Comparative in vitro MIC, isolate panel; assay type: cell-based
Source text: as §1
(§2) A comparative in vitro and in vivo biologically activity data of the compound of our invention, 2-{[1R,2R]-2-(2,4-Difluorophenyl)-2-hydroxy-1-methyl-3-(1H-1,2,4-triazole-1-yl)propyl}-4-[(2′,2′,3′,3′-tetrafluoropropoxyphenyl)-3-(2H,4H)-1,2,4-thiotriazolone (Compound No. 3) with 2-[(1R,2R)-2-(2,4-difluorophenyl)-2-hydroxy-1-methyl-3-(1H-1,2,4-triazol-1-yl)propyl]-4-(2′,2′,3′,3′-tetraflouropropoxyphenyl)-3(2H,4H)-1,2,4-triazolone (TAK 187) and standard antifungal pharmaceuticals is given below: […]

[34] = system: All Filamentous isolates; assay: Comparative in vitro MIC, isolate panel; assay type: cell-based
Source text: as §1, §2

[35] = system: All fungal pathogens; assay: Comparative in vitro MIC, isolate panel; assay type: cell-based
Source text: as §1, §2

[36] = system: Aspergillus fumigatus isolates; assay: Comparative in vitro MIC, isolate panel; assay type: cell-based
Source text: as §1, §2

[37] = system: Fusarium spp. isolates; assay: Comparative in vitro MIC, isolate panel; assay type: cell-based
Source text: as §1, §2

[38] = system: Penicillium spp. isolates; assay: Comparative in vitro MIC, isolate panel; assay type: cell-based
Source text: as §1, §2

[39] = system: Rhizoupus spp. isolates; assay: Comparative in vitro MIC, isolate panel; assay type: cell-based
Source text: as §1, §2

[40] = read-out: Minimum Inhibitory Concentration (MIC)
[41] = read-out: Minimum Fungicidal Concentration (MFC)

## C[C@@H](n1ncn(-c2ccc(N3CCN(c4ccc(Cl)cc4)CC3)cc2)c1=S)[C@](O)(Cn1cncn1)c1ccc(F)cc1F [Compound No. 1, 2-{[1R,2R]-2-(2,4-Difluorophenyl)-2-hydroxy-1-methyl-3-(1H-1,2,4-triazole-1-yl)propyl}-4-{4-[4-(4-chlorophenyl)-1-piperizinyl]phenyl}-3-(2H,4H)-1,2,4-thiotriazolone]
[1]
  Minimum Inhibitory Concentration (MIC): 0.004 µg/mL
[2]
  Minimum Inhibitory Concentration (MIC): 0.016 µg/mL
[3]
  Minimum Inhibitory Concentration (MIC): 0.008 µg/mL
[4]
  Minimum Inhibitory Concentration (MIC): 0.06 µg/mL
[5]
  Minimum Inhibitory Concentration (MIC): 0.004 µg/mL
[6]
  Minimum Inhibitory Concentration (MIC): 0.008 µg/mL
[7]
  Minimum Inhibitory Concentration (MIC): 0.008 µg/mL
[8]
  Minimum Fungicidal Concentration (MFC): 0.06 µg/mL
[9]
  Minimum Fungicidal Concentration (MFC): 0.03 µg/mL
[10]
  Minimum Fungicidal Concentration (MFC): 0.03 µg/mL
[11]
  Minimum Fungicidal Concentration (MFC): 0.03 µg/mL
[12]
  Minimum Fungicidal Concentration (MFC): 0.03 µg/mL
[13]
  Minimum Fungicidal Concentration (MFC): 0.03 µg/mL
[14]
  Minimum Fungicidal Concentration (MFC): 0.06 µg/mL
[15]
  Minimum Fungicidal Concentration (MFC): 0.06 µg/mL
[16]
  Minimum Fungicidal Concentration (MFC): 0.06 µg/mL
[17]
  Minimum Fungicidal Concentration (MFC): 0.06 µg/mL
[18]
  Minimum Fungicidal Concentration (MFC): 0.016 µg/mL
[19]
  Minimum Fungicidal Concentration (MFC): 0.016 µg/mL
[20]
  Minimum Fungicidal Concentration (MFC): 32 µg/mL
[21]; Fusarium 18270
  Minimum Fungicidal Concentration (MFC): >128 µg/mL
[22]; Fusarium 29600
  Minimum Fungicidal Concentration (MFC): >128 µg/mL
[23]
  Minimum Fungicidal Concentration (MFC): 1 µg/mL
[24]
  Minimum Fungicidal Concentration (MFC): 0.25 µg/mL
[25]
  Minimum Fungicidal Concentration (MFC): 0.125 µg/mL
[26]
  Minimum Fungicidal Concentration (MFC): 0.06 µg/mL
[27]
  Minimum Fungicidal Concentration (MFC): 0.125 µg/mL
[28]
  Minimum Fungicidal Concentration (MFC): 0.125 µg/mL
[29]
  Minimum Fungicidal Concentration (MFC): 4 µg/mL
[30]
  Minimum Fungicidal Concentration (MFC): 1 µg/mL
[31]
  Minimum Fungicidal Concentration (MFC): 0.5 µg/mL
[32]
  Minimum Fungicidal Concentration (MFC): 0.03 µg/mL

## OC(Cn1cncn1)(Cn1cncn1)c1ccc(F)cc1F [Fluconazole]
[1]; [40]
  MIC: > 128 µg/mL
[2]; [40]
  MIC: > 128 µg/mL
[3]; [40]
  MIC: > 128 µg/mL
[4]; [40]
  MIC: 4 µg/mL (≈ 13.1 µM)
[5]; [40]
  MIC: > 128 µg/mL
[6]; Cryptococcus neoformans, read-out: Minimum Inhibitory Concentration (MIC)
  MIC: 1 µg/mL (≈ 3.27 µM)
[7]; Cryptococcus neoformans, M106, read-out: Minimum Inhibitory Concentration (MIC)
  MIC: 4 µg/mL (≈ 13.1 µM)
[8]; [41]
  MFC: > 128 µg/mL
[9]; Aspergillus fumigatus, read-out: Minimum Fungicidal Concentration (MFC)
  MFC: > 128 µg/mL
[10]; Aspergillus fumigatus, SI11019, read-out: Minimum Fungicidal Concentration (MFC)
  MFC: > 128 µg/mL
[11]; [41]
  MFC: > 128 µg/mL
[12]; [41]
  MFC: > 128 µg/mL
[13]; [41]
  MFC: > 128 µg/mL
[14]; [41]
  MFC: > 128 µg/mL
[15]; [41]
  MFC: > 128 µg/mL
[16]; [41]
  MFC: > 128 µg/mL
[17]; [41]
  MFC: > 128 µg/mL
[18]; [41]
  MFC: 128 µg/mL (≈ 418 µM)
[19]; [41]
  MFC: 4 µg/mL (≈ 13.1 µM)
[20]; [41]
  MFC: > 128 µg/mL
[21]; Fusarium, 18270, read-out: Minimum Fungicidal Concentration (MFC)
  MFC: > 128 µg/mL
[22]; Fusarium, 29600, read-out: Minimum Fungicidal Concentration (MFC)
  MFC: > 128 µg/mL
[23]; [41]
  MFC: > 128 µg/mL
[24]; [41]
  MFC: > 128 µg/mL
[25]; [41]
  MFC: > 128 µg/mL
[26]; [41]
  MFC: > 128 µg/mL
[27]; [41]
  MFC: > 128 µg/mL
[28]; [41]
  MFC: > 128 µg/mL
[29]; H1048, read-out: Minimum Fungicidal Concentration (MFC)
  MFC: > 128 µg/mL
[30]; I1049, read-out: Minimum Fungicidal Concentration (MFC)
  MFC: > 128 µg/mL
[31]; [41]
  MFC: > 128 µg/mL
[32]; [41]
  MFC: > 128 µg/mL
[33]
  MIC: 5.3 µg/mL (≈ 17.3 µM)
[33]; read-out: MIC50
  MIC50: 8 µg/mL (≈ 26.1 µM)
[33]; read-out: MIC90
  MIC90: 128 µg/mL (≈ 418 µM)
[34]
  MIC: 199 µg/mL (≈ 650 µM)
[35]
  MIC: 105 µg/mL (≈ 343 µM)
[36]
  MIC: 256 µg/mL (≈ 836 µM)
[36]; read-out: MIC50
  MIC50: 256 µg/mL (≈ 836 µM)
[36]; read-out: MIC90
  MIC90: 256 µg/mL (≈ 836 µM)
[37]
  MIC: 256 µg/mL (≈ 836 µM)
[37]; read-out: MIC50
  MIC50: 256 µg/mL (≈ 836 µM)
[37]; read-out: MIC90
  MIC90: 256 µg/mL (≈ 836 µM)
[38]
  MIC: 174 µg/mL (≈ 569 µM)
[38]; read-out: MIC50
  MIC50: 256 µg/mL (≈ 836 µM)
[38]; read-out: MIC90
  MIC90: 256 µg/mL (≈ 836 µM)
[39]
  MIC: 256 µg/mL (≈ 836 µM)
[39]; read-out: MIC50
  MIC50: 256 µg/mL (≈ 836 µM)
[39]; read-out: MIC90
  MIC90: 256 µg/mL (≈ 836 µM)
